Reference: ChEMBL document CHEMBL1275581, “Detection of the pandemic O25-ST131 human virulent Escherichia coli CTX-M-15-producing clone harboring the qnrB2 and aac(6')-Ib-cr genes in a dog” (2009)
Converted amounts (≈) assume the structure as drawn.

Experiments:
Escherichia coli [1] = assay: (§1) Antimicrobial activity against beta-lactamase CTX-M-15-producing fluoroquinolone-resistant Escherichia coli FMV5825 expressing qnrB2 and aac(6')-Ib-cr and harboring gyrA Ser83Ile and Asp87Asn mutant gene and ParC Ser80Ile and Glu84Val mutant gene obtained from dog with urinary tract infection by broth microdilution method; assay type: functional
Escherichia coli [2] = assay: Antimicrobial activity against Azide-resistant Escherichia coli J53 by broth microdilution method; assay type: functional
Escherichia coli [3] = assay: microbe, parasite or virus in culture; details: J53
Escherichia coli [4] = assay: as §1, with “method in presence of beta-lactamase inhibitor clavulanic acid” for “method”; assay type: functional; details: FMV5825, Urine
Escherichia coli [5] = assay: Antimicrobial activity against Azide-resistant Escherichia coli J53 transconjugant harboring Escherichia coli DH5alpha-5825 qnrB2 gene by broth microdilution method in presence of beta-lactamase inhibitor clavulanic acid; assay type: functional
Escherichia coli [6] = assay: Antimicrobial activity against Azide-resistant Escherichia coli J53 by broth microdilution method in presence of beta-lactamase inhibitor clavulanic acid; assay type: functional
Escherichia coli [7] = assay: as §1, with “method in presence of beta-lactamase inhibitor Tazobactam” for “method”; assay type: functional; details: FMV5825, Urine
Escherichia coli [8] = assay: Antimicrobial activity against Azide-resistant Escherichia coli J53 transconjugant harboring Escherichia coli DH5alpha-5825 qnrB2 gene by broth microdilution method in presence of beta-lactamase inhibitor Tazobactam; assay type: functional
Escherichia coli [9] = assay: Antimicrobial activity against Azide-resistant Escherichia coli J53 by broth microdilution method in presence of beta-lactamase inhibitor Tazobactam; assay type: functional
Escherichia coli [10] = assay: Antimicrobial activity against Escherichia coli harboring qnr gene assessed as resistant isolate; assay type: functional

Row | Compound | MIC (Escherichia coli [1]; FMV5825, Urine) | MIC (Escherichia coli [2]) | MIC (Escherichia coli [3]) | further results
1 | CO[C@@]1(NC(=O)Cc2cccs2)C(=O)N2C(C(=O)O)=C(COC(N)=O)CS[C@@H]21 [CEFOXITIN] | ≤ 4 µg/mL | ≤ 4 µg/mL | ≤ 4 µg/mL | –
2 | NC[C@H]1O[C@H](O[C@H]2[C@H](O)[C@@H](O[C@H]3O[C@H](CO)[C@@H](O)[C@H](N)[C@H]3O)[C@H](N)C[C@@H]2N)[C@H](N)C[C@@H]1O [TOBRAMYCIN] | > 8 µg/mL | ≤ 2 µg/mL | > 8 µg/mL | –
3 | CC1(C)S[C@@H]2[C@H](NC(=O)[C@H](N)c3ccc(O)cc3)C(=O)N2[C@H]1C(=O)O [AMOXICILLIN] | – | – | – | MIC (Escherichia coli [4]): 8 µg/mL; MIC (Escherichia coli [5]): 8 µg/mL; MIC (Escherichia coli [6]): 2 µg/mL
4 | C[C@@H](O)[C@H]1C(=O)N2C(C(=O)O)=C(S[C@@H]3CN[C@H](C(=O)N(C)C)C3)[C@H](C)[C@H]12 [MEROPENEM] | ≤ 2 µg/mL | ≤ 2 µg/mL | ≤ 2 µg/mL | –
5 | C[C@H]1COc2c(N3CCN(C)CC3)c(F)cc3c(=O)c(C(=O)O)cn1c23.C[C@H]1COc2c(N3CCN(C)CC3)c(F)cc3c(=O)c(C(=O)O)cn1c23.O [LEVOFLOXACIN] | 32 µg/mL | 0.031 µg/mL | 0.031 µg/mL | –
6 | C[C@@H](O)[C@H]1C(=O)N2C(C(=O)O)=C(S[C@@H]3CN[C@H](C(=O)Nc4cccc(C(=O)O)c4)C3)[C@H](C)[C@H]12 | ≤ 0.5 µg/mL | ≤ 0.5 µg/mL | ≤ 0.5 µg/mL | –
7 | C[C@@H](O)[C@H]1C(=O)N2C(C(=O)O)=C(SCCNC=N)C[C@H]12 [IMIPENEM ANHYDROUS] | ≤ 1 µg/mL | ≤ 1 µg/mL | ≤ 1 µg/mL | –
8 | GENTAMICIN | – | 0.25 µg/mL | – | MIC (Escherichia coli [1]; Urine): 32 µg/mL
9 | CO/N=C(\C(=O)N[C@@H]1C(=O)N2C(C(=O)O)=C(COC(C)=O)CS[C@H]12)c1csc(N)n1 [CEFOTAXIME] | > 64 µg/mL | ≤ 1 µg/mL | > 64 µg/mL | MIC (Escherichia coli [4]): ≤ 0.25 µg/mL; MIC (Escherichia coli [5]): ≤ 0.25 µg/mL; MIC (Escherichia coli [6]): ≤ 0.25 µg/mL
10 | COCC1=C(C(=O)O)N2C(=O)[C@@H](NC(=O)/C(=N\OC)c3csc(N)n3)[C@H]2SC1 [CEFPODOXIME] | > 4 µg/mL | ≤ 1 µg/mL | > 4 µg/mL | –
11 | CO/N=C(\C(=O)N[C@@H]1C(=O)N2C(C(=O)[O-])=C(C[N+]3(C)CCCC3)CS[C@H]12)c1csc(N)n1 | > 16 µg/mL | ≤ 1 µg/mL | > 16 µg/mL | –
12 | CO[C@@]1(NC(=O)C2SC(=C(C(N)=O)C(=O)O)S2)C(=O)N2C(C(=O)O)=C(CSc3nnnn3C)CS[C@@H]21 (some centres not stated) [CEFOTETAN] | ≤ 16 µg/mL | ≤ 16 µg/mL | ≤ 16 µg/mL | –
13 | Cc1nnc(SCC2=C(C(=O)O)N3C(=O)[C@@H](NC(=O)Cn4cnnn4)[C@H]3SC2)s1 [CEFAZOLIN] | > 16 µg/mL | ≤ 16 µg/mL | > 16 µg/mL | –
14 | CC1(C)S[C@@H]2[C@H](NC(=O)[C@H](C(=O)O)c3ccsc3)C(=O)N2[C@H]1C(=O)O [TICARCILLIN] | > 64 µg/mL | ≤ 16 µg/mL | > 64 µg/mL | –
15 | CO/N=C(\C(=O)N[C@@H]1C(=O)N2C(C(=O)O)=C(COC(N)=O)CS[C@H]12)c1ccco1 [CEFUROXIME] | > 16 µg/mL | 1 µg/mL (≈ 2.36 µM) | > 16 µg/mL | –
16 | CCn1cc(C(=O)O)c(=O)c2cc(F)c(N3CCNCC3)cc21 [NORFLOXACIN] | 256 µg/mL (≈ 802 µM) | 0.062 µg/mL (≈ 0.194 µM) | 0.5 µg/mL (≈ 1.57 µM) | –
17 | NCC[C@H](O)C(=O)N[C@@H]1C[C@H](N)[C@@H](O[C@H]2O[C@H](CN)[C@@H](O)[C@H](O)[C@H]2O)[C@H](O)[C@H]1O[C@H]1O[C@H](CO)[C@@H](O)[C@H](N)[C@H]1O [AMIKACIN] | 16 µg/mL (≈ 27.3 µM) | 0.5 µg/mL (≈ 0.854 µM) | 2 µg/mL (≈ 3.42 µM) | –
18 | CCN1CCN(C(=O)N[C@@H](C(=O)N[C@@H]2C(=O)N3[C@@H]2SC(C)(C)[C@@H]3C(=O)O)c2ccccc2)C(=O)C1=O [PIPERACILLIN] | > 64 µg/mL | ≤ 8 µg/mL | > 64 µg/mL | MIC (Escherichia coli [7]): ≤ 8 µg/mL; MIC (Escherichia coli [8]): ≤ 8 µg/mL; MIC (Escherichia coli [9]): ≤ 8 µg/mL
19 | O=C(O)c1cn(C2CC2)c2cc(N3CCNCC3)c(F)cc2c1=O [CIPROFLOXACIN] | 128 µg/mL (≈ 386 µM) | – | – | Activity (Escherichia coli [10]): 26%
20 | CCn1cc(C(=O)O)c(=O)c2ccc(C)nc21 [NALIDIXIC ACID] | > 256 µg/mL | 4 µg/mL (≈ 17.2 µM) | 16 µg/mL (≈ 68.9 µM) | Activity (Escherichia coli [10]): 34%
21 | C[C@H]1[C@H](NC(=O)/C(=N\OC(C)(C)C(=O)O)c2csc(N)n2)C(=O)N1S(=O)(=O)O [AZTREONAM] | > 16 µg/mL | ≤ 1 µg/mL | > 16 µg/mL | –
22 | CC(C)(O/N=C(\C(=O)N[C@@H]1C(=O)N2C(C(=O)[O-])=C(C[n+]3ccccc3)CS[C@H]12)c1csc(N)n1)C(=O)O [CEFTAZIDIME] | 128 µg/mL (≈ 234 µM) | ≤ 1 µg/mL | 64 µg/mL (≈ 117 µM) | MIC (Escherichia coli [4]): ≤ 0.25 µg/mL; MIC (Escherichia coli [5]): ≤ 0.25 µg/mL; MIC (Escherichia coli [6]): ≤ 0.25 µg/mL
23 | CC1(C)S[C@@H]2[C@H](NC(=O)[C@H](N)c3ccccc3)C(=O)N2[C@H]1C(=O)O [AMPICILLIN] | > 16 µg/mL | ≤ 4 µg/mL | > 16 µg/mL | –
